SMILES strings stand for the structures.

Drawing on ChEMBL document CHEMBL1145880, “Aryl piperazine melanocortin MC4 receptor agonists” (Bioorg Med Chem Lett, 2003), this text covers EC50, Stimulation and Fold stimulation for 27 compounds.

For test [1], the target named is T1, Melanocortin receptor 4 (Homo sapiens, UniProt P32245). Description: Agonistic activity measured as […] cAMP accumulation in HEK cells expressing human Melanocortin 4 receptor (hMC4R). Format: functional, cell-based, HEK293.
The target of test [2] is T1, Melanocortin receptor 4. The experiment in a line: cAMP accumulation in HEK cells transfected with human melanocortin 4 receptor (hMC4R) with respect to alpha-MSH. The format is functional, cell-based. The conditions noted are these: HEK293. In general terms: cAMP levels reflect the balance of adenylyl cyclase and phosphodiesterase activity.
Test [3] deals with T1, Melanocortin receptor 4. The experiment in a line: cAMP accumulation in HEK cells transfected with human Melanocortin 4 receptor (hMC4R) with respect to alpha-MSH. Format: functional, cell-based. The following applies: HEK293.
Test [4] addresses Melanocortin receptor 4 (Mus musculus, UniProt P56450). The experiment in a line: In vitro cAMP accumulation in Y1 cells transfected with mouse Melanocortin 4 receptor (mMC4R). Format: functional, cell-based.
Test [5] addresses Adrenocorticotropic hormone receptor (Mus musculus, UniProt Q64326). Description: In vitro cAMP accumulation in Y1 cells transfected with mouse Melanocortin 2 receptor (mMC2R). Format: functional, cell-based.
The target in test [6] is Melanocortin receptor 5 (Homo sapiens, UniProt P33032). The experiment in a line: In vitro cAMP accumulation in HEK cells transfected with human Melanocortin 5 receptor (hMC5R). Format: functional, cell-based, HEK293.
In test [7] the target is Melanocortin receptor 3 (Homo sapiens, UniProt P41968). Description: In vitro cAMP accumulation in HEK cells transfected with human Melanocortin 3 receptor (hMC3R). The format is functional, cell-based, HEK293.
Test [8] deals with Melanocyte-stimulating hormone receptor (Homo sapiens, UniProt Q01726). The experiment in a line: In vitro cAMP accumulation in HEK cells transfected with human Melanocortin 1 receptor (hMC1R). The format is functional, cell-based, HEK293.
Sequence of Melanocyte-stimulating hormone receptor (Q01726 whole entry): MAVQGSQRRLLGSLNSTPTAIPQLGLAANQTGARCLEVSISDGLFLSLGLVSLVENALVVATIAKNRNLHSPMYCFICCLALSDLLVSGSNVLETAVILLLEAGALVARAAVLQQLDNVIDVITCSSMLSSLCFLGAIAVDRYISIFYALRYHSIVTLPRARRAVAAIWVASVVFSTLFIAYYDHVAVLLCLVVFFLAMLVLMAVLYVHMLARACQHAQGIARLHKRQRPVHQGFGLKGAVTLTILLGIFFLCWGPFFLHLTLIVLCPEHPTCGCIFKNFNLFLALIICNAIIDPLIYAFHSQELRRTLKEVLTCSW

Sequence of Adrenocorticotropic hormone receptor (Q64326 whole entry): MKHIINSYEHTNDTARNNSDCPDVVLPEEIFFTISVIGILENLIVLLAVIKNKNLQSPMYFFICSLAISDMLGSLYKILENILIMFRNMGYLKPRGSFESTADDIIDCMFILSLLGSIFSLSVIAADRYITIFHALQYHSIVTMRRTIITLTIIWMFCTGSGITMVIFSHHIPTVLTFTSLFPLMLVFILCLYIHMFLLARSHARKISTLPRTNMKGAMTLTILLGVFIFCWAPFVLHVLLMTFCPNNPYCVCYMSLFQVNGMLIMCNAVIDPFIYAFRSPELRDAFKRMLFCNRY
Sequence of Melanocortin receptor 4 (Mus musculus, UniProt P56450) (P56450 whole entry): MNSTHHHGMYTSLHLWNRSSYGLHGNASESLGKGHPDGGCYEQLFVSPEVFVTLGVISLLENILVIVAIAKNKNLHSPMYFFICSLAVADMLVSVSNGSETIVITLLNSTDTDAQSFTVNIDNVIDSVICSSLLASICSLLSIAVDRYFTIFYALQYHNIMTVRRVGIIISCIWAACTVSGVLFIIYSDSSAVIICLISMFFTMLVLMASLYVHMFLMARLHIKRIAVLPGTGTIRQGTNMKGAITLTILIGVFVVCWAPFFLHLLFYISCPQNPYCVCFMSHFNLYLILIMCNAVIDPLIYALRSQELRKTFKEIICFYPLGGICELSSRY
Sequence of Melanocortin receptor 5 (P33032 whole entry): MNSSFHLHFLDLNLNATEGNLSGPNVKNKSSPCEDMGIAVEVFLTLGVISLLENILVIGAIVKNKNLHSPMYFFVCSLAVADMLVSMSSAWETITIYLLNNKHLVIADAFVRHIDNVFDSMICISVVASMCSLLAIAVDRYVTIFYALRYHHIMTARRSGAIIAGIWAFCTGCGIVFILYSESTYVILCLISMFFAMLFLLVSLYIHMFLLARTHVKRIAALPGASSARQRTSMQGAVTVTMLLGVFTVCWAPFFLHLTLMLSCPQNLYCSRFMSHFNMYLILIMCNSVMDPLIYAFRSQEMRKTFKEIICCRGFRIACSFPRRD
T1 sequence (P32245 whole entry): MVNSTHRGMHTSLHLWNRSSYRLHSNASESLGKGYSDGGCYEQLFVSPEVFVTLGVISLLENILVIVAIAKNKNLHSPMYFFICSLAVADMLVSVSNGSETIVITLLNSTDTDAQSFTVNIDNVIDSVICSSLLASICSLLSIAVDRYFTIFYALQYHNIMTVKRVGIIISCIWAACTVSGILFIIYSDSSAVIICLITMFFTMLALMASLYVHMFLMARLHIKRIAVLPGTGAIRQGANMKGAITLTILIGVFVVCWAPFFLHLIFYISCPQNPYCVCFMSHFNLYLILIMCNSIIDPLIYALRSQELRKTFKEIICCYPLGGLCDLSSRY
Sequence of Melanocortin receptor 3 (P41968 whole entry): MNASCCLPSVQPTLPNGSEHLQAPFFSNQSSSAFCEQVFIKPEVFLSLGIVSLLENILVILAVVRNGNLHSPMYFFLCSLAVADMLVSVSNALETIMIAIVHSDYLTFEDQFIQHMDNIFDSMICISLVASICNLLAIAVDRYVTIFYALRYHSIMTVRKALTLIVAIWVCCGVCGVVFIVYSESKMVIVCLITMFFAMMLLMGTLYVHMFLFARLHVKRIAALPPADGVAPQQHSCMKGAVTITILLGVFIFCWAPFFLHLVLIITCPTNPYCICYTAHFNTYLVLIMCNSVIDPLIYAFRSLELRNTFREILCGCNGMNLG

As to `CC(=O)Nc1ccccc1N1CCN(C(=O)[C@@H](Cc2ccc(Cl)cc2)NC(=O)[C@H]2Cc3ccccc3CN2)CC1`, the EC50 (as a rule, the concentration needed to bring the measured effect to its halfway point) in test [1] came out at 1900 nM. For the same compound, the Stimulation in test [2] was 64%.
Regarding `CCOC(=O)CNC(=O)Nc1ccccc1N1CCN(C(=O)[C@@H](Cc2ccc(Cl)cc2)NC(=O)[C@H]2Cc3ccccc3CN2)CC1`, a half-maximal effect in test [1] (EC50) was put at 2100 nM. The compound also returned a Stimulation in test [2] of 68%.
`O=C(N[C@H](Cc1ccc(Cl)cc1)C(=O)N1CCN(c2c(Cn3cncn3)ccc3ccccc23)CC1)[C@H]1Cc2ccccc2CN1` gave an EC50 in test [1] of 170 nM. Also, the Stimulation in test [2] was determined as 100%.
The compound `O=C(Nc1ccccc1N1CCN(C(=O)[C@@H](Cc2ccc(Cl)cc2)NC(=O)[C@H]2Cc3ccccc3CN2)CC1)c1cccnc1` gave a concentration for a half-maximal effect (EC50) in test [1] of 1100 nM. Also, the Stimulation in test [2] was determined as 83%.
Turning to `CN(C)C(=O)Nc1ccccc1N1CCN(C(=O)[C@@H](Cc2ccc(Cl)cc2)NC(=O)[C@H]2Cc3ccccc3CN2)CC1`, the Fold stimulation in test [3] was 7%.
`CC(C)S(=O)(=O)Nc1ccccc1N1CCN(C(=O)[C@@H](Cc2ccc(Cl)cc2)NC(=O)[C@H]2Cc3ccccc3CN2)CC1`: in test [1], the concentration giving a half-maximal response (EC50) came to 440 nM. The Stimulation in test [2] was determined as 85%.
Take `COc1ccc(Cn2cncn2)c(N2CCN(C(=O)[C@@H](Cc3ccc(Cl)cc3)NC(=O)[C@H]3Cc4ccccc4CN3)CC2)c1`: the 50% effective concentration (EC50) in test [1] worked out at 110 nM. Besides, in test [2], the Stimulation came to 100%.
The corresponding values for `CCC(CC)N(Cc1ccccc1N1CCN(C(=O)[C@@H](Cc2ccc(Cl)cc2)NC(=O)[C@H]2Cc3ccccc3CN2)CC1)S(C)(=O)=O` are 2200 nM and 100%.
On to `CS(=O)(=O)N1CC2(CCN(C(=O)[C@@H](Cc3ccc(Cl)cc3)NC(=O)[C@H]3Cc4ccccc4CN3)CC2)c2ccccc21`, for which the half-maximal effective concentration (EC50) in test [1] came to 190 nM. This compound also displayed a Stimulation in test [2] of 100%.
The corresponding values for `O=C(N[C@H](Cc1ccc(Cl)cc1)C(=O)N1CCN(c2ccc(C(F)(F)F)cc2Cn2cncn2)CC1)[C@H]1Cc2ccccc2CN1` are 680 nM and 100%.
For the compound `O=C(N[C@H](Cc1ccc(Cl)cc1)C(=O)N1CCC(Cn2cncn2)(C2CCCCC2)CC1)[C@H]1Cc2ccccc2CN1`, the EC50 in test [4] was 7.6 nM; in test [5] it was > 10000 nM; in test [6] it was 2700 nM. This compound also yielded a Stimulation in test [2] of 100%.
`CN(c1ccccc1N1CCN(C(=O)[C@@H](Cc2ccc(Cl)cc2)NC(=O)[C@H]2Cc3ccccc3CN2)CC1)S(C)(=O)=O` had a half-maximal effective concentration (EC50) in test [1] of 520 nM. This compound yielded a Stimulation in test [2] of 100%.
`O=C(N[C@H](Cc1ccc(Cl)cc1)C(=O)N1CCN(c2ccccc2NS(=O)(=O)C(F)(F)F)CC1)[C@H]1Cc2ccccc2CN1` showed a concentration for a half-maximal effect (EC50) in test [1] of 4400 nM. Moreover, the Stimulation in test [2] was determined as 34%.
Turning to `COCC(=O)Nc1ccccc1N1CCN(C(=O)[C@@H](Cc2ccc(Cl)cc2)NC(=O)[C@H]2Cc3ccccc3CN2)CC1`, the EC50 in test [1] was found to be 600 nM. This compound gave a Stimulation in test [2] of 34%.
As for `O=C(Nc1ccccc1N1CCN(C(=O)[C@@H](Cc2ccc(Cl)cc2)NC(=O)[C@H]2Cc3ccccc3CN2)CC1)c1ccncc1`, the Fold stimulation in test [3] was 30%.
In the case of `O=C(NCc1ccccc1)Nc1ccccc1N1CCN(C(=O)[C@@H](Cc2ccc(Cl)cc2)NC(=O)[C@H]2Cc3ccccc3CN2)CC1`, it took 1000 nM to reach a half-maximal effect in test [1] (EC50). Also, in test [2], the Stimulation is 62%.
For the compound `O=C(N[C@H](Cc1ccc(Cl)cc1)C(=O)N1CCN(c2ccccc2Cn2cncn2)CC1)[C@H]1Cc2ccccc2CN1`, the EC50 was 80 nM in test [1]; > 3000 nM in test [7]; 59 nM in test [4]; > 3000 nM in test [8]; > 10000 nM in test [5]; > 3000 nM in test [6]. Further, the Stimulation in test [2] was found to be 100%.
`CCC(C)N(Cc1ccccc1N1CCN(C(=O)[C@@H](Cc2ccc(Cl)cc2)NC(=O)[C@H]2Cc3ccccc3CN2)CC1)S(C)(=O)=O` (stereo partly drawn) displayed an EC50 in test [1] of 1000 nM. The same compound had a Stimulation in test [2] of 100%.
Take `CS(=O)(=O)Nc1ccccc1N1CCN(C(=O)[C@@H](Cc2ccc(Cl)cc2)NC(=O)[C@H]2Cc3ccccc3CN2)CC1`: the EC50 in test [1] was found to be 380 nM. The compound further showed a Stimulation in test [2] of 100%.
For `CC(C)(C)CN(Cc1ccccc1N1CCN(C(=O)[C@@H](Cc2ccc(Cl)cc2)NC(=O)[C@H]2Cc3ccccc3CN2)CC1)S(C)(=O)=O`, in that order: 2400 nM and 100%.
In the case of `COC(=O)C(=O)Nc1ccccc1N1CCN(C(=O)[C@@H](Cc2ccc(Cl)cc2)NC(=O)[C@H]2Cc3ccccc3CN2)CC1`, the response in test [1] was half-maximal at 1600 nM (EC50). Besides, the Stimulation in test [2] was determined as 55%.
In test [3], `O=C(Nc1ccccc1N1CCN(C(=O)[C@@H](Cc2ccc(Cl)cc2)NC(=O)[C@H]2Cc3ccccc3CN2)CC1)C1CC1` showed a Fold stimulation of 21%.
With `CCOC(=O)NC(=O)Nc1ccccc1N1CCN(C(=O)[C@@H](Cc2ccc(Cl)cc2)NC(=O)[C@H]2Cc3ccccc3CN2)CC1`, the EC50 in test [1] worked out at 650 nM. Moreover, the Stimulation in test [2] worked out at 24%.
`O=C(N[C@H](Cc1ccc(Cl)cc1)C(=O)N1CCN(c2cccc(Cl)c2Cn2cncn2)CC1)[C@H]1Cc2ccccc2CN1` showed an EC50 in test [1] of 470 nM. This compound registered a Stimulation in test [2] of 70%.
`CCN(Cc1ccccc1N1CCN(C(=O)[C@@H](Cc2ccc(Cl)cc2)NC(=O)[C@H]2Cc3ccccc3CN2)CC1)S(C)(=O)=O` registered a concentration giving a half-maximal response (EC50) in test [1] of 690 nM. Besides, the Stimulation in test [2] stood at 100%.
As for `O=C(N[C@H](Cc1ccc(Cl)cc1)C(=O)N1CCN(c2ccccc2Cn2cnnc2)CC1)[C@H]1Cc2ccccc2CN1`, the concentration giving a half-maximal response (EC50) is 24 nM in test [1]; > 3000 nM in test [7]; 38 nM in test [4]; > 3000 nM in test [8]; > 10000 nM in test [5]; > 3000 nM in test [6]. In test [2], this compound had a Stimulation of 100%.
Turning to `CC(C)CN(Cc1ccccc1N1CCN(C(=O)[C@@H](Cc2ccc(Cl)cc2)NC(=O)[C@H]2Cc3ccccc3CN2)CC1)S(C)(=O)=O`, in test [1], the response was half-maximal at 380 nM (EC50). In test [2], this compound registered a Stimulation of 100%.
